In patent US20030165853A1, “Antisense imaging of gene expression of the brain in vivo” (The Regents of the University of California Office of …, priority 2000, published 2003):

Experiments:
[1] = mouse, in vivo
Protocol: (§1) Adult male BALB/c mice were divided into 5 groups of 3 mice each for the pharmacokinetic study. The mice were anesthetized with an intraperitoneal injection of ketamine (100 mg/kg) and xylazine (2 mg/kg). The injection solution contained 5 μCi of [^125I]-HD-PNA with or without conjugation to 2 μg of 8D3-SA in 0.01 M PBS/pH 7.4, and a total volume of 50 μl was administered via the jugular vein of each mouse. Groups of 3 mice each were sacrificed at 0.25, 2, 5, 15, and 60 min after the isotope injection and arterial blood was sampled from the aorta. After spinning the blood samples, the collected supernatant (serum) was counted for [^125I]-radioactivity using a γ-counter (Beckman Instruments, Inc., Fullerton, Calif.). An aliquot of serum was precipitated with cold 10% TCA, and the fraction of total serum radioactivity that was TCA precipitated was determined. The brain and peripheral organs (liver, kidney, heart, lung, and spleen) were removed from each mouse at 60 min after the isotope administration and total [^125I]-radioactivity in the organ was measured.
The organ permeability-surface area (PS) product of either the unconjugated [^125I]-HD-PNA, or the [^125I]-HD-PNA conjugated to 8D3/SA, was calculated as follows: [formula] […]
The brain delivery of the compound was expressed as percentage of injected dose (ID)/g brain, and was calculated as follows: […]

human HD exon 1 = assay: Translation arrest (combined in vitro transcription/translation of HD exon 1); format: biochemical; details: 5-50 μM antisense agent, [3H]-leucine incorporation
Protocol: The hybridization of the antisense HD-PNA to the HD transcript was determined using a combination of transcription and translation that mimics in vivo conditions as previously described (Boado et al. (2000) J. Pharmacol. Exp. Ther., 295: 239-243). The cDNA containing the human HD exon 1 was sublconed into the Bluescript KS+plasmid, between either T3 or T7 RNA polymerase promoters, and this plasmid is designated clone 839, as described previously (Id). Transcription/translation of human HD exon 1 clone 839 was performed with 0.2 μg clone 839 plasmid DNA in the presence of T3 RNA polymerase, 5 μCi [^3H]-leucine, and 50% v/v rabbit reticulocyte lysate using the T3-TNT translation system (Promega, Madison, Wis.), as described previously (Id). Dose response studies with newly synthesized PNAs were performed and compared with a positive control antisense phosphodiester-ODN, designated ODN-III, as described (Id). Samples were incubated for 30 min at 30 ° C., and incorporation of [^3H]-leucine into HD exon 1 protein was analyzed by trichloroacetic acid (TCA) precipitation, and data expressed as percent of control, which lacked any added PNA or ODN. The HD exon 1 insert is 10% of the total plasmid, or about […] per 12.5 μL reaction. Since the TNT produces 10-30 RNA copies per plasmid, the final concentration of the HD RNA in the TNT reaction is approximately 1 μM. […]

HD mRNA = assay: HD RNase protection assay; format: binding, human; details: RNase T1/A digestion, PAGE autoradiography
Protocol: The sense RNA was synthesized with T3 RNA polymerase following linearization of the plasmid with EcoRI. The transcribed RNA was radiolabeled with [^32Pα]ATP to a specific activity of 0.22 μCi/pmol, as previously described (Boado and Pardridge (1994) Bioconj. Chem., 6: 406-410). For the RNAse protection assay, 0.6 pmol of biotinylated HD-PNA or biotinylated luciferase-PNA, with or without conjugation to 6.4 pmol of MAb-SA, was added to 10^5 CPM of [^32P]-labeled sense HD RNA (0.2 pmol) in 3 μl buffer (80 mM NaCl, 7 mM phosphate buffer, pH=7.5, 0.1% BSA), and annealed for 30 minutes at 42° C. Then 20 units RNAse Ti and 2.5 μg RNAse A were added to the samples in 17 μl of RNAse digestion buffer (0.3 M NaCl, 10 mM TRIS pH=7.5, 4 mM EDTA, 0.02% tRNA, 0.02% BSA) and incubated for 30 min at 37° C. RNA fragments were analyzed by 7 M urea/20% polyacrylamide gel electrophoresis following by autoradiography as described by Pardridge et al. (1995) Proc. Natl. Acad. Sci., USA, 92:5592-5596. Labeled RNA and PNAs were heat denatured for 2 minutes at 95° C. and then incubated on ice for 2 minutes immediately before the experiment or conjugation to MAb-SA.

[2] = mouse, in vivo, iv
Protocol: as §1
Pharmacokinetic parameters were determined by fitting the serum TCA-precipitable radioactivity data to a biexponential equation with a weighting factor of [1/A(t)]^2 using a derivative-free nonlinear regression analysis (PARBMDP, Biomedical Computer P-Series, developed at UCLA Health Science Computing Facilities).
where A(t)=% injected dose (ID)/ml serum at a given time (t).

With “[^125I]-PNA: biotinylated 16-mer PNA complementary to nucleotides −1 to +15 of human HD exon 1, Tyr-Lys, amidated carboxyl terminus; radioiodinated (CTTCCATTTTACCAAC; all peptide nucleic acid (PNA); biotinylated, Tyr-Lys added, amidated C-terminus, radioiodinated, positions not given here)” the “BBB PS product” value [1] was < 0.3 µL/min/g, the “inhibition of cell free translation of HD exon 1 protein” value (human HD exon 1) was “inhibits the cell free translation” and the “hybridization to HD mRNA (RNase protected fragment)” value (HD mRNA) was “specifically hybridizes to the target mRNA”. The A1 [2] was 32 ± 2 % ID/ml, the A2 [2] was 6.3 ± 0.7 % ID/ml and the “AUC (60 min)” value [2] was 308 ± 36 % ID · min/ml. For the same substance, the “AUC (∞)” value [2] was 399 ± 49 % ID · min/ml, the K1 [2] was 0.37 ± 0.04 min⁻¹ and the K2 [2] was 0.0206 ± 0.0014 min⁻¹. The VSS [2] was 374 ± 42 mL/kg, the “t½^1” value [2] was 1.9 ± 0.2 min and the “t½^2” value [2] was 34 ± 3 min.
